Experimental data published in patent US20140262319A1, “ENVIRONMENTALLY FRIENDLY PERMANENT QUATERNARIES OF POLYAMINES AND THEIR USE AS CLAY STABILIZERS AND METHODS FOR MAKING AND USING SAME” (CLEARWATER INTERNATIONAL, LLC, priority 2013, published 2014).

Test system: Fathead Minnow (pimephales promelas)
Assay: Acute toxicity survival test
Format: in vivo
Conditions: Flathead Minnows
Procedure: As a consequence, the “definitive” test gave a more precise LC50 value. LC50 was determined using a log-normal transformation coupled with linear regression between the bracketing no observed effect concentration (NOEC) and lowest observed effect concentration (LOEC). Both the range finding and definitive tests were run on Example 4 and Example 5. Only the ranging finding test was run for TMAC and Example 3.

| Structure (SMILES) | toxicity to minnows compared with TMAC |
| --- | --- |
| CCOS(=O)(=O)[O-].CC[N+](CCO)(CCO)CCO [Example 5] | much less toxic than TMAC |
| OCC[N+](CCO)(CCO)Cc1ccccc1.[Cl-] [Example 4] | much less toxic than TMAC |
